Data as given in patent US11938220B2, “Sustained-release anesthetic compositions and methods of preparation thereof” (TLC Biopharmaceuticals, Inc., priority 2018, dated 2024).

Test system: Sprague-Dawley rats after paw incision
Assay: Anesthetic effect in a paw incision rat model (Von Frey, 50% paw withdrawal threshold)
Type: in vivo
Details: intra-plantar injection after paw incision, 1.9 mg ropivacaine articles, 1.33 mg ER Bupivacaine per incision, 0.5 hour after injection
Description: FIG. 1A is a graph depicting 50% paw withdrawal threshold by a Von Frey test; wherein an anesthetic composition in accordance with the present disclosure (Ropivacaine composition) is our test article and ropivacaine injectable solution (unformulated ropivacaine) and commercial extended release liposomal bupivacaine (ER Bupivacaine) are used as reference articles. Saline, Ropivacaine composition, Ropivacaine injectable solution, and ER Bupivacaine were intra-plantarly administered after paw incision; the error bars represent the standard error of mean (SEM); and *:P<0.05 when compared to ER Bupivacaine group; BBL=Before surgery baseline; ABL=After surgery baseline.
FIG. 1B is a graph depicting the percentage of maximum possible effects (% MPE), calculated from the 50% paw withdrawal threshold using the formula % MPE=(Thresholdaftertreatment−ABL)/(BBL−ABL)×100%; wherein the error bars represent the standard error of mean (SEM); *:P<0.05 when compared to ER Bupivacaine group. MPE over 30% is considered effective;
Sprague-Dawley rats were used for evaluating the anesthetic efficacy after paw incision as described in Pain. 1996 March; 64(3):493-501. […]
Before surgery baselines (BBL) of 27 rats were measured −1 to −3 days prior to surgery; after surgery baselines (ABL) of 27 rats were measured 30 minutes after surgery. […]

CCCN1CCCC[C@H]1C(=O)Nc1c(C)cccc1C [unformulated ropivacaine, ropivacaine]
50% paw withdrawal threshold at T=0.5 hour: 11.47 g
